In patent publication US5776902A, “Boronophenyl analogs of phospholyrosines” (Trustees of Tufts University, priority 1995, dated 1998):

How the values were obtained:
[1] = biological target: T1, SH2 mediated interaction of middle T and fyn (Homo sapiens, UniProt P06241); assay: Effect on Middle T/fyn interaction (GST-Fyn pull-down of 32P-labeled middle T, autoradiography); format: binding; settings: GST-Fyn on glutathione-Sepharose beads, 32P-labeled polyoma Middle T, SDS gel autoradiography (FIG. 6); inhibitor 3.95×10^-4 M to 3.95×10^-5 M
T1 construct: host or cells: middle T: Sf9 cells (baculovirus co-expression with src)
Procedure: Approximately 10 μg of a GST-Fyn fusion protein bound to 10 μl of glutathione-Sepharose beads were incubated with 90 μl of buffer (TEB, pH 9.0) and 10 μl of DMSO or DMSO containing an isomer (#1 or #2) of compound 36 (lanes 2 and 3 equal 3.95×10^-4 M; lane 4 equals 1.32×10^-4 M; lane 5 equals 3.95×10^-5 M). Lane 1 contains no inhibitor. The lanes labeled "MT 315" (lanes 6 and 7) are reaction mixutures as above, but having 20 μg of peptide (middle T residues EEYMPMED) instead of the benzodiazepine 36. The label "pY" indicates the peptide was phosphorylated, while unphosphoryalated peptide is designated as "-". The reaction mixtures were incubated for 1 hour, then 100 μL ^32 P-labeled Middle T (polyoma), prepared from baculovirus co-expression of middle T and src in Sf9 cells, were added to each reaction and incubated for 1 hour more at 4° C. The sepharose was washed with twice with PBS, and once with distilled water, boiled in SDS dissociation buffer, and run on a 7.5% acrylamide SDS gel. Labeled MT was visualized on the gel by autoradiography, and the inhibition of MT/fyn interaction determined.

[2] = biological target: T2, lck-SH2 (Homo sapiens, UniProt P06239); assay: IDEXX lck-SH2 binding assay (GST-SH2 beads, FITC-labeled peptide EPQYEEIPIYL); settings: inhibition of binding of FITC-labeled peptide to GST-lck SH2 beads (FIG. 7)
T2 construct: made in house; host or cells: E. coli
Procedure: In order to assess the inhibitory activity of the present peptidomimetics, the ability of the subject compounds to inhibit the interaction between a specific peptide and an SH2 domain was determined. Various SH2 domains were subcloned in frame with the glutathione-S-transferase affinity tag of the pGEX vector system (Pharmacia catalog no. PGEX-4T-3). The resulting pGEX-E2 construct encoded a glutathione-S-transferase (GST)/SH2 fusion protein (Smith et al. (1988) Gene 67:31-40). The pGEX construct was introduced into E. coli by transfromation, and the transformants grown in liquid media (LB) in the presence of IPTG. Purification of GST/E2 fusion protein was by standard protocols (Current Protocols in Molecular Biology, eds. Ausubel et al. (NY:John Wiley & Sons, 1991); Pharmacia instruction booklet (for catalog no. 27-4570)) using a glutathione-sepharose column (Pharmacia catalog no. 27-4570). Briefly, the cells were pelleted and resuspended in buffer A (50 mM TRIS (pH7.5), 2 mM EDTA, 250 mM NaCl, 5% glycerol (V/V), 1% Tween (V/V), 1% Triton X 100 (V/V)), to which 2 mM PMSF and 15 mM 2-mercaptoethanol were added. […]

T2 sequence (P06239 127-224 limits assumed): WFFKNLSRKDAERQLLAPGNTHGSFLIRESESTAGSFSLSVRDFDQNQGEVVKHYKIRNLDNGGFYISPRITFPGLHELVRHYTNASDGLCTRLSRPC
T1 sequence (P06241 whole entry, species assumed): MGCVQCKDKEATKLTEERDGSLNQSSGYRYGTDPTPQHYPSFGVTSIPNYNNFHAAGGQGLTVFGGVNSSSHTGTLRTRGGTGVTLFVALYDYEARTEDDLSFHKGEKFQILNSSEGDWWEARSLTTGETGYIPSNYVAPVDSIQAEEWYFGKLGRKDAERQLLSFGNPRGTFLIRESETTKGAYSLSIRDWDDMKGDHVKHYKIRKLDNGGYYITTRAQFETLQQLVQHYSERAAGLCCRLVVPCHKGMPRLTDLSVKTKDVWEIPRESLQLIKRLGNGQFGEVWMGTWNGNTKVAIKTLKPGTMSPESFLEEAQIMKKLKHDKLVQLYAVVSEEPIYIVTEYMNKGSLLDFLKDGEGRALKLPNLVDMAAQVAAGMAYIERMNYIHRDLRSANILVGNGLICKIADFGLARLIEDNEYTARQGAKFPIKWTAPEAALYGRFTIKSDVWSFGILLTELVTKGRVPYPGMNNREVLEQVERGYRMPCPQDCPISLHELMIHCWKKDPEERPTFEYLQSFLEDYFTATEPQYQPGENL

Structure (SMILES) | inhibition of MT/fyn interaction [1] | IC50 [2] [µM]
CC[C@H](C)[C@H](NC(=O)CN1C(=O)C(NC(=O)[C@H](Cc2ccc(OP(=O)(O)O)cc2)NC(C)=O)N=C(c2ccccc2)c2ccccc21)C(=O)OC (stereo partly shown) [compound 36] | both isomers of 36 displayed inhibitory action | 271
CC[C@H](C)[C@H](NC(=O)CN1C(=O)C(NC(=O)[C@H](Cc2ccc(OP(=O)(O)O)cc2)NC(=O)OCC2c3ccccc3-c3ccccc32)N=C(c2ccccc2)c2ccccc21)C(=O)OC (stereo partly drawn) [FMOC-derivative, 1,3-Dihydro-1-[(methoxy-L-isoleucyl)carbonylmethyl)-5-phenyl-3(R,S)-{[(N-fluorenylmethoxycarbonyl)phosphono-L-tyrosyl]amino}-2H-1,4-benzodiazepin-2-one] |  | 48.2
CC[C@H](C)[C@H](NC(=O)CN1C(=O)C(NC(=O)[C@H](Cc2ccc(OP(=O)(O)O)cc2)NC(C)=O)N=C(c2ccccc2)c2ccccc21)C(=O)OC (single isomer, unassigned; isomer #2) [isomer #2] | more potent inhibitor | 
